Where a name gives a salt, the structure may show the parent alone. Read-outs that look alike come from different tables or passages of the source.
Experiments:
[1] = target: central cholinergic receptors; experiment: 3H-oxotremorine M binding, rat brain homogenates; conditions: rat brain homogenate, pH 7.4, 40 min at 30 °C; read-out: Binding IC50, 3H-Oxo-M
Procedure: Briefly, rat brains were homogenized in 100 vol (w/v) 10 mM Na,K-phosphate buffer (pH 7.4) and aliquots incubated with ^3 H-oxotremorine M (84.9 Ci/mmol, NEN) alone or in the presence of test compound in a total volume of 1.5 ml for 40 min. at 30° C. The reaction was stopped by adding 5 ml ice-cold buffer and filtered through Whatman GF/B filters soaked previously in 0.1% polyethylenimin (Sigma) for minimum 30 min. The filters were washed once with the same volume of buffer, transferred to scintillation vials and extracted in scintillation fluid (Pico-fluor 15, Packard) for at least two hours before counted in a liquid scintillation spectrometer (Beckman LS 1800). Non-specific binding was estimated at 10 μM atropine and all estimations made in triplicate. At least two displacement curves were made for each compound tested.

[2] = target: T1, central muscarinic M-1 receptors (Rattus norvegicus, UniProt P08482); experiment: biochemical; conditions: rat brain homogenate, 1.0 nM 3H-pirenzepine, 60 min at 25 °C; read-out: Binding IC50, 3H-Pirenzepine
T1 sequence (P08482 1-460): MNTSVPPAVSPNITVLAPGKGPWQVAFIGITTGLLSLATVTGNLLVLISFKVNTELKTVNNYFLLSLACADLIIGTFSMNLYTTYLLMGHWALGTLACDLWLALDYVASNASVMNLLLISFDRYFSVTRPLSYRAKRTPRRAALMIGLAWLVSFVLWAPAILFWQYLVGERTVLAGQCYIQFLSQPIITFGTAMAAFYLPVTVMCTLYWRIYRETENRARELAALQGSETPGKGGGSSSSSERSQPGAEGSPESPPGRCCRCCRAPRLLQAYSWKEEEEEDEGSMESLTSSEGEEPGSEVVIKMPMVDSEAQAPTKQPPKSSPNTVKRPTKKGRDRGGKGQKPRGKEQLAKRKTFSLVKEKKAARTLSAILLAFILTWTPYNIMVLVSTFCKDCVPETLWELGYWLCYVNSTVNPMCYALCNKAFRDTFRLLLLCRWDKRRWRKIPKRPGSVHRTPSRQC
Procedure: ^3 H-pirenzepine binding was performed essentially as described by Watson et al., 1983, the conditions being very much the same as for ^3 H-oxotremorine binding, except that aliquots were incubated with 1.0 nM ^3 H-pirenzepine for 60 min. at 25° C. and that the reaction was stopped by direct filtration followed by 3 washes with 4 ml buffer.

[3] = cited from earlier work
[4] = cited from earlier work; remark: listed apart in the source
[5] = after peripheral administration; cited from earlier work

Row | SMILES | IC50 [1] [nM] | IC50 [2] [nM] | penetration of the blood-brain barrier ([3]; in vivo) | hydrolysis of the ester group in vivo [4] | penetration of the blood-brain barrier ([3]; after peripheral administration) | central effects [5]
1 | CC(C)Oc1noc2c1CNCCC2 [Example 6, 3-Isopropoxy-5,6,7,8-tetrahydro-4H-isoxazolo[4,5-c]azepine Hydrochloride] | 8.3 | 5 | – | – | – | –
2 | COc1noc2c1CNCCC2 [Example 5, 3-Methoxy-5,6,7,8-tetrahydro-4H-isoxazolo[4,5-c]azepine Hydrochloride] | 2.8 | 248 | – | – | – | –
3 | CC(=O)OCC[N+](C)(C)C [AcCh, acetylcholine] | – | – | do not penetrate the blood-brain barrier (BBB) easily | – | – | –
4 | COc1noc2c1CNCC2 [O-Methyl-THPO, reference compound] | 62 | 8600 | – | – | – | –
5 | C#CCOc1noc2c1CNCCC2 [Example 9, 3-(2-Propynyloxy)-5,6,7,8-tetrahydro-4H-isoxazolo [4,5-c]azepine Hydrochloride] | 0.34 | 16 | – | – | – | –
6 | CCOc1noc2c1CNCCC2 [Example 4, 3-Ethoxy-5,6,7,8-tetrahydro-4H-isoxazolo[4,5-c]azepine Hydrochloride] | 0.49 | 11 | – | – | – | –
7 | C#CCOc1noc2c1CNCCC2C (centres unmarked) [Example 14, 8-Methyl-3-(2-propynyloxy)-5,6,7,8-tetrahydro-4H-isoxazolo 4,5-c azepine, Fumarate] | 0.93 | 16 | – | – | – | –
8 | COC(=O)C1=CCCN(C)C1 [Arecoline, methyl 1-methyl-1,2,5,6-tetrahydropyridine-3-carboxylate] | 1.9 | – | – | very rapidly hydrolyzed in vivo | capable of penetrating the BBB after peripheral administration | very weak and frequently negligible central effects
